According to the NIST ThermoML archive (doi:10.1021/acs.jced.7b00221):

Key:
[1] = 100 kPa, Liquid; for mass density: Vibrating tube method; for viscosity: Cone and plate viscometry
[2] = xn = mol fraction of the nth substance listed; details: 100 kPa, Liquid, Cone and plate viscometry

CCCCCC[n+]1ccn(C)c1.O=S(=O)([N-]S(=O)(=O)C(F)(F)F)C(F)(F)F
[1]
Details | mass density [kg/m3]
283.15 K | 1385.6
288.15 K | 1381
293.15 K | 1376.5
295.15 K | 1374.6
298.15 K | 1371.9
303.15 K | 1367.3
308.15 K | 1362.8
313.15 K | 1358.3
318.15 K | 1353.7
323.15 K | 1349.2
328.15 K | 1344.7
333.15 K | 1340.3
338.15 K | 1335.8
343.15 K | 1331.4
348.15 K | 1326.9
353.15 K | 1322.5

CCCCCCn1cc[n+](C)c1C.O=S(=O)([N-]S(=O)(=O)C(F)(F)F)C(F)(F)F
[1]
Details | mass density [kg/m3]
283.15 K | 1373
288.15 K | 1368.4
293.15 K | 1363.9
295.15 K | 1362.1
298.15 K | 1359.5
303.15 K | 1355.1
308.15 K | 1350.8
313.15 K | 1346.4
318.15 K | 1342
323.15 K | 1337.6
328.15 K | 1333.2
333.15 K | 1328.9
338.15 K | 1324.5
343.15 K | 1320.2
348.15 K | 1315.8
353.15 K | 1311.5

CCCC[n+]1ccn(C)c1.O=S(=O)([N-]S(=O)(=O)C(F)(F)F)C(F)(F)F
[1]
Details | mass density [kg/m3] | viscosity [mPa·s]
278.15 K | – | 138
283.15 K | 1451.1 | 104
288.15 K | 1446.3 | 80
293.15 K | 1441.5 | 63
295.15 K | 1439.6 | –
298.15 K | 1436.8 | 51
303.15 K | 1432 | –
308.15 K | 1427.3 | –
313.15 K | 1422.7 | –
318.15 K | 1418 | –
323.15 K | 1413.3 | –
328.15 K | 1408.7 | –
333.15 K | 1404.1 | –
338.15 K | 1399.4 | –
343.15 K | 1394.8 | –
348.15 K | 1390.2 | –
353.15 K | 1385.7 | –

CC[P+](CC)(CC)COCCOC.O=S(=O)([N-]S(=O)(=O)C(F)(F)F)C(F)(F)F
[1]
Details | viscosity [mPa·s]
278.15 K | 84
283.15 K | 65
288.15 K | 51

CCn1cc[n+](C)c1.O=S(=O)([N-]S(=O)(=O)C(F)(F)F)C(F)(F)F
[1]
Details | mass density [kg/m3] | viscosity [mPa·s]
278.15 K | – | 80
283.15 K | 1534.1 | 63
288.15 K | 1529 | 50
293.15 K | 1523.9 | –
295.15 K | 1521.9 | –
298.15 K | 1518.9 | –
303.15 K | 1513.9 | –
308.15 K | 1508.9 | –
313.15 K | 1503.9 | –
318.15 K | 1499 | –
323.15 K | 1494.1 | –
328.15 K | 1489.1 | –
333.15 K | 1484.2 | –
338.15 K | 1479.3 | –
343.15 K | 1474.4 | –
348.15 K | 1469.6 | –
353.15 K | 1464.7 | –

CCCCCCn1cc[n+](C)c1.N#Cc1ccc[n-]1 [1-hexyl-3-methylimidazolium 2-cyanopyrrolide]
[1]
Details | viscosity [mPa·s]
278.15 K | 1540
283.15 K | 902
288.15 K | 553
293.15 K | 355
298.15 K | 239
303.15 K | 167
308.15 K | 122
313.15 K | 91
318.15 K | 70
323.15 K | 55

CCCCCCCC[P+](CC)(CC)CC.O=[N+]([O-])c1cn[n-]c1 [triethyloctylphosphonium 4-nitropyrazolide]
[1]
Details | mass density [kg/m3]
283.15 K | 1040.7
288.15 K | 1037.7
293.15 K | 1034.6
295.15 K | 1033.4
298.15 K | 1031.5
303.15 K | 1028.5
308.15 K | 1025.5
313.15 K | 1022.6
318.15 K | 1019.6
323.15 K | 1016.7
328.15 K | 1013.8
333.15 K | 1010.8
338.15 K | 1007.9
343.15 K | 1005
348.15 K | 1002.1
353.15 K | 999.2

CCCCCCCCCCCCCC[P+](CCCCCC)(CCCCCC)CCCCCC.N#Cc1ccc[n-]1 [trihexyl(tetradecyl)phosphonium 2-cyanopyrrolide]
[1]
Details | viscosity [mPa·s]
278.15 K | 1764
283.15 K | 1179
288.15 K | 804
293.15 K | 563
298.15 K | 404
303.15 K | 297
308.15 K | 223
313.15 K | 170
318.15 K | 133
323.15 K | 106

CCCCCCCCCCCCCC[P+](CCCCCC)(CCCCCC)CCCCCC.O=[N+]([O-])c1cn[n-]c1 [trihexyl(tetradecyl)phosphonium 4-nitropyrazolide] + CCCCCC[n+]1ccn(C)c1.O=S(=O)([N-]S(=O)(=O)C(F)(F)F)C(F)(F)F
viscosity [mPa·s], [2]
Details | 278.15 K | 283.15 K | 288.15 K | 293.15 K | 298.15 K | 303.15 K | 308.15 K | 313.15 K | 318.15 K | 323.15 K
x1 = 0.099 | 338 | 241 | 175 | 132 | 101 | 80 | 65 | 52 | – | –
x1 = 0.2 | 528 | 367 | 261 | 191 | 144 | 111 | 88 | 70 | 57 | –
x1 = 0.3 | 831 | 565 | 393 | 282 | 208 | 158 | 122 | 97 | 78 | 64
x1 = 0.501 | 1594 | 1055 | 715 | 499 | 357 | 264 | 199 | 153 | 120 | 96
x1 = 0.695 | 2474 | 1600 | 1061 | 726 | 512 | 371 | 276 | 209 | 162 | 128
x1 = 0.797 | 2704 | 1750 | 1158 | 788 | 554 | 400 | 296 | 222 | 171 | 134
x1 = 0.898 | 3071 | 1971 | 1297 | 880 | 614 | 441 | 325 | 244 | 187 | 146
